Molecules are shown by their SMILES.

As a reminder, the IC50 is the point on the concentration scale where inhibition reaches its midpoint.

Data set [1] concerns syngeneic Panc02 pancreas tumor. Description: Panc02 mouse pancreatic cancer model, intradermal syngeneic tumor growth. It is filed as in vivo, C57BL/6 mice. To be noted: for anticancer activity in the early phase of the treatment: given alone. As to the method:
The syngeneic Panc02 is a pancreatic adenocarcinoma tumor cell line obtained from NCI (0507232). Panc02 cells are positive for Ki-Ras, p53, HerNEU and CDK. Panc02 were grown in RPMI-1640 containing 10% fetal bovine serum. At day 0, 50 μl of 7.5×10^5 viable Panc02 cells were intradermally injected to produce localized tumors in 6- to 8-week old C57BL/6 mice. The animals were then serially monitored by manual palpation for evidence of tumor. Mice were then treated every day with oral administration of vehicle (negative control), or sodium decanoate and with intraperitoneal injection of gemcitabine (50 mg/kg) at day 21, 28, 35 and 42. Mice were sacrificed between days 36 to 50. Serial tumor volume was obtained by bi-dimensional diameter measurements with calipers, using the formula 0.4 (a×b^2) where “a” was the major tumor diameter and “b” the minor perpendicular diameter. Tumors were palpable, in general, 3-5 days post-inoculation. Percentage of tumor growth is reported as the percentage of growth of the pancreatic tumor on a given day relative to that growth which is observed on the first day of treatment with medium-chain length fatty acid, or sodium salt or triglyceride or vehicle (control). T/C is defined as: Treated Tumor Growth CYO/Control Tumor Growth (%).
The effect of sodium dodecanoate and gemcitabine in pancreatic Panc02 cancer was determined as described in Example 2.

Data set [2] concerns orthotopic syngeneic Panc02 pancreatic tumor. Put plainly: Panc02 mouse orthotopic pancreatic cancer model, survival. It is filed as in vivo, C57BL/6 mice. Set-up: % Survival: concentration or dose not given beside the values. The settings on record: for % Survival: Table 2. As to the method: At day 0, 50 μl of 1×10^6 viable Panc02 cells per ml were injected onto the pancreas to produce orthotopic tumors in 6- to 8-week old C57BL/6 mice. Mice were then treated every day with oral administration of vehicle (negative control), or sodium decanoate and with intraperitoneal injection of gemcitabine (50 mg/kg) once a week (day 1, 8, 15, etc.).
The effect of gemcitabine and tricaprin in combination with gemcitabine in orthotopic pancreatic Panc02 cancer was determined as described in Example 3.

Data set [3] deals with syngeneic Panc02 pancreas tumor. Put plainly: Panc02 mouse pancreatic cancer model, intradermal syngeneic tumor growth. It is filed as in vivo, C57BL/6 mice.
Data set [4] deals with metastatic pancreatic cancer. The settings on record: pancreatic cancer patients after metastasis; cited from earlier work.
A further data set has as its system Panc02 cells. Put plainly: In vitro cytotoxicity (MTT) on pancreatic cancer cells. It is filed as cell-based. The settings on record: Mus musculus, 24 h cell culture. The protocol:
This assay was performed to determine the effect of compounds of the present invention on cell cytotoxicity. Panc02 cells were incubated in presence or absence of compounds in RPMI-1640 conditioned media. After 24 hours incubation, 50 μl of 3-(4,5-dimethyl-2-thiazyl)-2,5-diphenyl-2H-tetrazolium bromide ([…]; 2 mg/ml) was added and further incubated for 4 hours. The supernatant was discarded and 100 μl of dimethylsulfoxide (DMSO) was added. Absorbance was read at 570 nm with an ELISA Tecan Sunrise plate reader. The control group consisted of cells without compounds and is referred to as 100% of viable cells. IC50 was determined using Prism software.

Regarding `Nc1ccn([C@@H]2O[C@H](CO)[C@@H](O)C2(F)F)c(=O)n1` [Gemcitabine], the “inhibition of tumor growth (p<0.05)” value is “significant inhibition” in data set [1] (FIG. 1, gemcitabine 50 mg/kg, day 27 to 34); “significant (p<0.05) inhibition” in data set [1] (FIG. 2, gemcitabine alone, day 23 to 37); “significant inhibition” in data set [1] (FIG. 6, gemcitabine 50 mg/kg, day 44); “significant inhibition” in data set [3] (FIG. 3, gemcitabine 25 mg/kg, day 39); “significant inhibition” in data set [3] (FIG. 4, gemcitabine 10 mg/kg, day 41). Moreover, the “anticancer activity in the early phase of the treatment” value in data set [1] (FIG. 3) and in data set [1] (FIG. 4) was “did not display anticancer activities” each time. In addition, in data set [1] (increased concentration of gemcitabine), the mortality result is recorded as “mortality is observed”. The “survival compared with mice that had received vehicle” value in data set [2] (FIG. 5) and in data set [2] (FIG. 7) was “prolonged survival” each time. Moreover, the Median survival amounted to 71 days in data set [2] (FIG. 5, gemcitabine 50 mg/kg once a week, sodium decanoate oral 200 mg/kg every day) and 53.5 days in data set [2] (FIG. 7, gemcitabine 50 mg/kg, tricaprin oral 600 mg/kg). The “% Survival” value in data set [2] (day 58) is listed as 86%; in data set [2] (day 72), 42%; in data set [2] (day 83) it was 28%; in data set [2] (day 87), 14%; in data set [2] (day 92), 0%; in data set [2] (day 92, listed as gemcitabine), “all mice are dead”. For the same molecule, the T/C in data set [3] (FIG. 3, gemcitabine 25 mg/kg alone) is listed as over 40; in data set [3] (FIG. 4, gemcitabine 10 mg/kg alone), “no T/C<40”. Besides, the one-year survival in data set [4] is 18%.
For the molecule `CCCCCCCCCC(=O)O` [Decanoic acid], in the data set on Panc02 cells, the IC50 worked out at 630 µM.
`CCCCCCCCCC(=O)[O-].[Na+]` [Sodium decanoate] had an IC50 in the data set on Panc02 cells of 520 µM. The “inhibition of tumor growth (p<0.05)” value was “significant inhibition” in data set [1] (FIG. 1, sodium decanoate oral 100 mg/kg, day 23 to 44); “significant (p<0.05) inhibition of the tumor growth in a dose dependent fashion” in data set [1] (FIG. 2, sodium decanoate oral 100, 200 and 400 mg/kg). The “tumor growth inhibition compared to control (p<0.05)” value in data set [1] (FIG. 2, sodium decanoate 400 mg/kg, day 23 to 37) is reported as “significant”.
Turning to `CCCCCCCCCC(=O)[O-].[Na+]` [PBI-1402], the “anticancer activity in the early phase of the treatment” value in data set [1] (FIG. 3) and in data set [1] (FIG. 4) was “did not display anticancer activities” each time.
Regarding `CCCCCCCCCCCC(=O)[O-].[Na+]` [Sodium dodecanoate], half-maximal inhibition with Panc02 cells (IC50) was put at 150 µM. Further, in data set [1] (FIG. 6, sodium dodecanoate oral 200 mg/kg, day 44), the “inhibition of tumor growth (p<0.05)” value was “significant inhibition”.

(Values after patent US8946190B2, “Medium-chain length fatty acids, salts and triglycerides in combination with gemcitabine for treatment of pancreatic cancer” (priority 2007, dated 2015).)
